Marks after values point to notes of the source that are not given here. Where no end group is shown, it is not given here.
Experiments:
[1] = tested on: IL-1β production from human peripheral blood mononuclear cells (PBMC); experiment: IL-1β production from human PBMC, Cytometric Bead Array; type: cell-based; details: concentration of control compound not given, Table 18
Procedure: (§1) Peripheral blood was drawn from healthy volunteers (with approval from the relevant ethical committee in Denmark). Heparinized blood was diluted 1/1 v/v with RPMI and were subjected to Ficoll density centrifugation within 2 h of drawing. Plasma was collected from the top from individual donors and was kept on ice until it was used at 2% in the culture medium (autologous culture medium). Isolated PBMC were resuspended in autologous culture medium and seeded in 96-well culture plates with 255.000 cells per well in a total of 200 μl. […] The concentrations used for stimulation were optimized on 3 different donors in initial experiments, for LPS two different concentrations were used to be sure to be on a cytokine level that is possible to modulate. In some experiments PBMC were treated with Dexamethason and Indomethacin alone and together with LPS or LTA as a control on downregulation of inflammatory cytokines. The supernatants were collected after incubation at 37° C. for 24 hours, and stored at −80° C. until cytokine measurement. Viability was measured by Alamar Blue (Biosource, DALL 1100) in all experiments and in some cases also by MTS (Promega) according to manufacturer's instruction and was in some experiments also judged by counting of the cells by a Nucleocounter.
(§2) Cytokine production in supernatants was measured by flow cytometry with a human inflammation cytometric bead array (CBA) according to manufacturer's instructions (BD) on a FACSarray flow cytometer. The following cytokines were measured: IL-8, IL-1β, IL-10, TNF, IL-12 p70, IL-6. In some experiments, cytokines were measured by ELISA kits from R&D systems (IL-10, TNF-α, IL-1β) according to the manufacturer' instruction.

[2] = tested on: TNF production from mouse peripheral blood mononuclear cells (PBMC); experiment: TNF production from mouse PBMC, Cytometric Bead Array; type: cell-based
Procedure: Mouse peripheral blood mononuclear cells were isolated from blood of ten NMRI mice. In short, heparinized blood was diluted 1/1 v/v with RPMI and subjected to Ficoll density centrifugation within 2 h of drawing. Plasma was collected from the top and discarded. Isolated PBMC were resuspended in culture medium (RPMI 1640 (Gibco, 42401) w/1% penicillin and streptomycin and 1% L-Glutamine) and seeded in 96-well culture plates with 115.500 cells per well in a total of 200 μl. […] The supernatants were collected after incubation at 37° C. for 24 hours, and stored at −80° C. until cytokine measurement.
Cytokine production in supernatants was measured by flow cytometry with a mouse inflammation cytometric bead array (CBA) according to manufacturer's instructions (BD) on a FACSarray flow cytometer.

[3] = tested on: TNF production from human peripheral blood mononuclear cells (PBMC); experiment: TNF production from human PBMC, Cytometric Bead Array; type: cell-based
Procedure: as §1, §2

[4] = tested on: IL-10 production from human peripheral blood mononuclear cells (PBMC); experiment: IL-10 production from human PBMC, Cytometric Bead Array; type: cell-based; details: concentration of control compound not given, Table 17
Procedure: as §1, §2

IL-23, human PBMC = experiment: IL-23 in supernatants of human PBMC, ELISA; type: cell-based
Procedure: as §1, with “Nucleocounter. […]” for “Nucleocounter.”
(§3) Cell culture supernatants were collected and stored at −80° C. Amounts of IL-23 was measured by standard sandwich ELISA using commercially available antibodies and standards according to the manufacturer's protocols (eBioscience).

[5] = tested on: IL-23, human CD14+ monocyte-derived dendritic cells; experiment: IL-23 in supernatants of human CD14+ monocyte-derived dendritic cells, ELISA; type: cell-based; details: Dexamethasone 1 μM
Procedure: The DCs were prepared according to a modified protocol originally described by Romani et al. Briefly, peripheral blood mononuclear cells (PBMCs) were purified from buffy coats of healthy donors by centrifugation over a Ficoll-pague (GE-healthcare) gradient. Monocytes were isolated from PBMC by positive selection of CD14+ cells by magnetic beads (Dynal, Invitrogen) according to the manufacturer's instructions. The CD14+ monocytes were cultured in 6-well plates in RPMI/2% Human AB Serum recombinant human recombinant granulocyte-macrophage colony-stimulating factor (GM-CSF, 20 ng/ml) and IL-4 (20 ng/ml) (PeproTech) for 6 days, replenishing the medium/cytokines after 2 and 5 days.
as §3

[6] = tested on: collagen-induced arthritis (CIA) in the mouse; experiment: Collagen-induced rheumatoid arthritis model, clinical arthritis score; type: in vivo; set-up: key: each paw scored 0-4 by ascending severity; total summed over paws; details: Group B, 1 mg/kg IP once daily
Procedure: All animals were subjected on Day 0 of the study (study commencement) to an intradermal injection into the tail of 0.1 ml Type II Collagen/CFA emulsion (200 μg collagen per mouse) under light Isoflurane anesthesia, using a plastic syringe. The location of injection was at an approximate caudal distance of about 1 cm from the base of the tail. A collagen challenge (200 μg/mouse) was presented to the animals by IP injection of collagen and PBS on Day 21.
Treatments were commenced on day 14 of the study and continued once daily throughout. All surviving mice were terminated on study day 42.
Mice were examined for signs of arthritogenic responses in peripheral joints on study day 0, 14, 21 and thereafter five times weekly until termination of the study. Arthritis reactions were reported for each paw according to a 0-4 scale in ascending order of severity as shown below:
In accordance with Home Office regulations mice with a total clinical score of equal to or greater than 12 were culled due to arthritis severity. The clinical score of these mice at termination was carried forward in the analysis for the remainder of the study in order that the data was not artificially skewed by the removal of high scoring mice.

[7] = LPS 20 ng/ml, treatment 1 μg/ml
[8] = LPS 0.6 ng/ml, concentration of control compound not given, Table 16
[9] = LPS 20 ng/ml, concentration of control compound not given, Table 16
[10] = LPS 20 ng/ml, treatment 1 μg/ml, Table 21
[11] = Medium, treatment 1 μg/ml, Table 21

Infliximab: antibody which binds to TNF-alpha (Remicade), positive control [reference compound]
IL-1β ([1]; LPS 0.6 ng/ml): 636 pg/mL
IL-1β % of control ([1]; LPS 0.6 ng/ml): 86%
IL-1β ([1]; LPS 20 ng/ml): 2704 pg/mL
IL-1β % of control ([1]; LPS 20 ng/ml): 106%
IL-1β ([1]; Medium): 0 pg/mL
TNF [2, 7]: 2119 pg/mL
TNF ([2]; Medium, treatment 1 μg/ml): 530 pg/mL
TNF [3, 8]: 0 pg/mL
TNF % of control [3, 8]: 0%
TNF [3, 9]: 0 pg/mL
TNF % of control [3, 9]: 0%
TNF [3, 10]: 1 pg/mL
TNF ([3]; Medium, concentration of control compound not given, Table 16): 0 pg/mL
TNF [3, 11]: 0 pg/mL
IL-10 ([4]; LPS 0.6 ng/ml): 46 pg/mL
IL-10 % of control ([4]; LPS 0.6 ng/ml): 69%
IL-10 ([4]; LPS 20 ng/ml): 63 pg/mL
IL-10 % of control ([4]; LPS 20 ng/ml): 56%
IL-10 ([4]; Medium): 0 pg/mL
IL-23 (IL-23, human PBMC; Control (medium), treatment 1 μg/ml): 227 pg/mL
IL-23 (IL-23, human PBMC; LPS 0.6 ng/ml, treatment 1 μg/ml): 356 pg/mL
IL-23 (IL-23, human PBMC; [7]): 373 pg/mL
IL-23 (IL-23, human PBMC; LTA 5 μg/ml, treatment 1 μg/ml): 349 pg/mL

C[C@@H]1C[C@H]2[C@@H]3CCC4=CC(=O)C=C[C@]4(C)[C@@]3(F)[C@@H](O)C[C@]2(C)[C@@]1(O)C(=O)CO [Dexamethasone, reference compound]
IL-1β % of control ([1]; LPS 0.6 ng/ml): 14%
IL-1β % of control ([1]; LPS 20 ng/ml): 44%
TNF ([2]; LPS 20 ng/ml, treatment 3.5 ng/ml): 328 pg/mL
IL-23 ([5]; LPS (100 ng/ml) and IFN-γ (20 ng/ml)): 1147 pg/mL
IL-23 ([5]; Unstimulated): 424 pg/mL
IL-10 % of control ([4]; LPS 0.6 ng/ml): 70%
IL-10 % of control ([4]; LPS 20 ng/ml): 67%
IL-23 (IL-23, human PBMC; Control (medium), treatment 3.5 ng/ml): 222 pg/mL
IL-23 (IL-23, human PBMC; LTA 5 μg/ml, treatment 3.5 ng/ml): 223 pg/mL
Mean Arthritic Score ([6]; Study Day 0): 0.0
Mean Arthritic Score ([6]; Study Day 14): 0.4
Mean Arthritic Score ([6]; Study Day 21): 0.0
Mean Arthritic Score ([6]; Study Day 22): 0.0
Mean Arthritic Score ([6]; Study Day 23): 0.0
Mean Arthritic Score ([6]; Study Day 26): 0.0*
Mean Arthritic Score ([6]; Study Day 27): 0.0*
Mean Arthritic Score ([6]; Study Day 28): 0.0*
Mean Arthritic Score ([6]; Study Day 29): 0.0*
Mean Arthritic Score ([6]; Study Day 30): 0.0*
Mean Arthritic Score ([6]; Study Day 33): 0.0*
Mean Arthritic Score ([6]; Study Day 34): 0.0*
Mean Arthritic Score ([6]; Study Day 35): 0.0*
Mean Arthritic Score ([6]; Study Day 36): 0.0*
Mean Arthritic Score ([6]; Study Day 37): 0.0*
Mean Arthritic Score ([6]; Study Day 40): 0.0*
Mean Arthritic Score ([6]; Study Day 41): 0.0*

mBD3: mouse beta defensin 3, SEQ ID NO:6; produced recombinantly by the hBD2 protocol (KINNPVSCLRKGGRCWNRCIGNTRQIGSCGVPFLKCCKRK; ends and bridges not checked; cysteine pairing not given here; listed as Mus musculus)
TNF [2, 7]: 1600 pg/mL
TNF ([2]; LPS 20 ng/ml, treatment 10 μg/ml): 297 pg/mL
TNF ([2]; LPS 20 ng/ml, treatment 100 μg/ml): 195 pg/mL
TNF ([2]; Medium, treatment 1 μg/ml): 347 pg/mL
TNF ([2]; Medium, treatment 10 μg/ml): 180 pg/mL
TNF ([2]; Medium, treatment 100 μg/ml): 182 pg/mL
TNF [3, 10]: 384 pg/mL
TNF ([3]; LPS 20 ng/ml, treatment 10 μg/ml, Table 21): 51 pg/mL
TNF ([3]; LPS 20 ng/ml, treatment 100 μg/ml, Table 21): 166 pg/mL
TNF [3, 11]: 2 pg/mL
TNF ([3]; Medium, treatment 10 μg/ml, Table 21): 2 pg/mL
TNF ([3]; Medium, treatment 100 μg/ml, Table 21): 39 pg/mL
